From ChEMBL document CHEMBL1138338, “Design, synthesis, and structure-activity relationships of a novel series of 5-alkylidenepyridazin-3(2H)-ones with a non-cAMP-based antiplatelet activity” (J Med Chem, 2007)
pIC50: −log10 of the molar value. Calls of active or inactive are those of the source. The calls are words filed in the database; no cut-off is given here.

Tested on: not listed separately
Experiment: Inhibition of PDE3 in guinea pig ventricle
Design: species or system Cavia porcellus

Point of comparison: COC(=O)C(=Cc1cc(=O)n(C)nc1-c1ccccc1)C(=O)OC, pIC50 2.70. Against it:
- CCOC(=O)C(=Cc1cc(=O)[nH]nc1-c1ccccc1)C(=O)OCC — the same, 2.70
- COC(=O)C(=Cc1cc(=O)[nH]nc1-c1ccccc1)C(=O)OC — the same, 2.70

Tested on: not listed separately
Experiment: (§1) Inhibition of thrombin-induced platelet aggregation in human platelets after 5 mins by turbidimetric method
Type: functional, cell-based

Point of comparison: CC(C)(C)OC(=O)C(=Cc1cc(=O)[nH]nc1-c1ccccc1)C(=O)OC(C)(C)C, pIC50 5.12. Against it:
- O=C(/C=C/c1cc(=O)[nH]nc1-c1ccccc1)c1ccccc1 — 1.27 log units lower, 3.85
- O=C(OCc1ccccc1)C(=Cc1cc(=O)[nH]nc1-c1ccccc1)C(=O)OCc1ccccc1 — 0.62 log units higher, 5.74
- CC(C)(C)OC(=O)C(=Cc1cnn(Cc2ccccc2)c(=O)c1)C(=O)OC(C)(C)C — within 0.2 log units, 5.20
- O=C(OCc1ccccc1)C(=Cc1cnn(Cc2ccccc2)c(=O)c1)C(=O)OCc1ccccc1 — 0.75 log units higher, 5.87
- O=C(OCc1ccccc1)C(=Cc1cn[nH]c(=O)c1)C(=O)OCc1ccccc1 — 0.33 log units higher, 5.45
- COC(=O)C(=Cc1cnn(C)c(=O)c1)C(=O)OC — 0.31 log units lower, 4.81
- CCOC(=O)C(=Cc1cnn(Cc2ccccc2)c(=O)c1)C(=O)OCC — 0.32 log units higher, 5.44
- COC(=O)C(=Cc1cnn(Cc2ccccc2)c(=O)c1)C(=O)OC — within 0.2 log units, 5.31
- CCOC(=O)C(=Cc1cc(=O)n(C)nc1-c1ccccc1)C(=O)OCC — 0.35 log units lower, 4.77
- Cn1nc(-c2ccccc2)c(C=C(C(=O)OC(C)(C)C)C(=O)OC(C)(C)C)cc1=O — 0.77 log units lower, 4.35
- O=C1C(CC[S+]([O-])c2ccccc2)C(=O)N(c2ccccc2)N1c1ccccc1 (configuration not stated) [SULFINPYRAZONE] — 1.83 log units lower, 3.29
- Cn1ncc(C=C(C#N)C#N)cc1=O — 1.80 log units lower, 3.32
- N#C/C=C/c1cnn(Cc2ccccc2)c(=O)c1 — 1.46 log units lower, 3.66
- CCOC(=O)C(=Cc1cn[nH]c(=O)c1)C(=O)OCC — within 0.2 log units, 5.06
- CC(C)OC(=O)C(=Cc1cc(=O)n(C)nc1-c1ccccc1)C(=O)OC(C)C — 0.27 log units higher, 5.39
- CC(C)OC(=O)C(=Cc1cnn(Cc2ccccc2)c(=O)c1)C(=O)OC(C)C — 0.42 log units higher, 5.54
- O=C(/C=C/c1cnn(Cc2ccccc2)c(=O)c1)c1ccccc1 — 1.35 log units lower, 3.77
- CCOC(=O)C(=Cc1cc(=O)[nH]nc1-c1ccccc1)C(=O)OCC — 0.42 log units lower, 4.70
- COC(=O)C(=Cc1cn[nH]c(=O)c1)C(=O)OC — 0.72 log units lower, 4.40
- Cn1nc(-c2ccccc2)c(C=C(C(=O)OCc2ccccc2)C(=O)OCc2ccccc2)cc1=O — 0.73 log units higher, 5.85
- CC(C)OC(=O)C(=Cc1cnn(C)c(=O)c1)C(=O)OC(C)C — 0.24 log units lower, 4.88
- CCOC(=O)C(=Cc1cnn(C)c(=O)c1)C(=O)OCC — 0.21 log units lower, 4.91
- Cn1ncc(C=C(C(=O)OC(C)(C)C)C(=O)OC(C)(C)C)cc1=O — 1.10 log units lower, 4.02
- COC(=O)C(=Cc1cc(=O)[nH]nc1-c1ccccc1)C(=O)OC — 0.77 log units lower, 4.35
- CC(C)OC(=O)C(=Cc1cc(=O)[nH]nc1-c1ccccc1)C(=O)OC(C)C — 0.36 log units lower, 4.76
- COC(=O)C(=Cc1cc(=O)n(C)nc1-c1ccccc1)C(=O)OC — within 0.2 log units, 5.04
- N#CC(C#N)=Cc1cnn(Cc2ccccc2)c(=O)c1 — 1.22 log units lower, 3.90
- Cc1[nH]c(=O)c(C#N)cc1-c1ccncc1 [MILRINONE] — 0.21 log units higher, 5.33
- Cn1ncc(C=C(C(=O)OCc2ccccc2)C(=O)OCc2ccccc2)cc1=O — 0.67 log units higher, 5.79

Tested on: Platelet
Experiment: as §1
Type: functional, cell-based

For COCn1nc(-c2ccccc2)c(/C=C/C(=O)OC)cc1=O, the Activity was “inactive”.
With O=C(OCc1ccccc1)C(=Cc1cnn(Cc2ccccc2)c(=O)c1)C(=O)OCc1ccccc1 the Activity was “Dose-dependent effect”.
For COC(=O)C(=Cc1cc(=O)[nH]nc1-c1ccccc1)C(=O)OC, the Activity was “Dose-dependent effect”.
In the case of CC(C)OC(=O)C(=Cc1cc(=O)[nH]nc1-c1ccccc1)C(=O)OC(C)C, the Activity was “Dose-dependent effect”.
